Patent publication US10562893B2, “Benzimidazoles derivatives as Tec kinases family inhibitors” (GB005, Inc., priority 2015, dated 2020)

Assays:
Human PBMCs = assay: CD3/CD28 mediated PBMC proliferation assay; format: cell-based; conditions: proliferation of human PBMCs stimulated with anti-CD3 and anti-CD28, 72 hours, Cell Titer-Glo
Description: Inhibition of cellular ITK was assessed by measuring proliferation of PBMCs following stimulation with anti-CD3 and anti-CD28 antibodies. Individual wells of 96 well tissue culture plates were coated with 50 μL of 5 μg/mL anti-CD3 (OKT3, eBiosciences) for 2 hours at 37° C. Human PBMCs (Stemcell Technologies catalog #70025.3) were plated in 96-well plates at a final concentration of 9.2×10e5 cells/mL in complete media (RPMI, 10% heat inactivated FBS, 55 uM β-mercaptoethanol) and pre-treated with compound curves for 30 minutes at 37° C., 5% CO2. Pre-treated cells plus compounds were transferred to washed anti-CD3 coated plates. Soluble anti-CD28 (CD28.2 eBiosciences) was added to each well at a final concentration of 2 μg/mL. The cells were placed in a humidified 37° C. incubator with 5% CO2 for 72 hours and metabolic viability was measured by quantification of ATP levels with Cell Titer-Glo (Promega catalog # G9242). Controls included unstimulated cells and vehicle alone. EC50 values (50% proliferation in the presence of compound as compared to vehicle treated controls) were calculated from dose response compound curves using GraphPad Prism Software.

[1] = tested on: Jurkat human acute T cell leukemia cells; assay: Jurkat IL-2 release assay; format: cell-based; conditions: IL-2 release from Jurkat cells stimulated with anti-CD3 and anti-CD28, 48 hours, ELISA
Description: Inhibition of cellular ITK was assessed by measuring release of IL-2 following stimulation with anti-CD3 and anti-CD28 antibodies. Individual wells of 96 well tissue culture plates were coated with 50 μL of 10 μg/mL anti-CD3 (OKT3, eBiosciences) for 2 hours at 37° C. Jurkat human acute T cell leukemia cells (ATCC) were plated in 96-well plates at a final concentration of 9.2×10e5 cells/mL in complete media (RPMI, 10% FBS, 1.5 g/L sodium bicarbonate, 10 mM Hepes, 1 mM sodium pyruvate, 4.5 g/L glucose) and pre-treated with compound curves for 30 minutes at 37° C., 5% CO2. Pre-treated cells plus compounds were transferred to washed anti-CD3 coated plates. Soluble anti-CD28 (CD28.2 eBiosciences) was added to each well at a final concentration of 1 μg/mL. The cells were placed in a humidified 37° C. incubator with 5% CO2 for 48 hours and IL-2 release was measured using a commercial ELISA (BD Bioscience catalog #555190). Controls included unstimulated cells and vehicle alone. EC50 values (50% IL-2 release in the presence of compound as compared to vehicle treated controls) were calculated from dose response compound curves using GraphPad Prism Software.

RLK/TXK = RLK/TXK (Homo sapiens (Human), UniProt P42681); assay: RLK/TXK kinase inhibition assay; format: biochemical; conditions: micro-fluidic detection, 3 hours at 25° C.
Description: (§1) The in vitro kinase assays were performed at Nanosyn utilizing micro-fluidic detection technology. The test compounds were serially pre-diluted in DMSO and added, by the acoustic dispensing (Labcyte® 550), directly to 384well assay plates into 10 uL of a buffer with enzyme comprising: 100 mM HEPES, pH7.5, 5 mM MgCl2, 0.1% bovine serum albumin, 1 mM DTT, 0.01% Triton X-100 and the enzyme. Final DMSO concentration was maintained at 1% in all samples, including the controls. The reactions were initiated by addition of ATP (to the specified concentration) and the fluorescently labeled peptide substrate to a final concentration of 1 uM, and incubated for 3 hours at 25° C. Following incubation, the reactions were quenched by addition of 40 μL of termination buffer (100 mM HEPES, pH7.5, 0.01% Triton X-100, 50 mM EDTA). Terminated plates were analyzed using Caliper LabChip® 3000 microfluidic electrophoresis instrument (Caliper Life Sciences/Perkin Elmer). The enzymatic modification of the peptide substrate (phosphorylation) results in a change of net charge enabling electrophoretic separation of product from substrate. As substrate and product are separated by electrophoresis, two peaks of fluorescence are observed. Change in the relative fluorescence intensity of the substrate and product peaks was the parameter measured, reflecting enzyme activity. In the presence of inhibitor, the ratio between product and substrate is altered: signal of the product decreases, while the signal of the substrate increases. Activity in each test sample was determined as the product to sum ratio (PSR): P/(S+P), where P is the peak height of the product and S is the peak height of the […]. For each compound, enzyme activity was measured at 12 concentrations spaced by 3× dilution intervals. Negative control samples (0%-inhibition in the absence of inhibitor, DMSO only) and positive control samples (100%-inhibition, in the absence of enzyme or in the presence of control inhibitor) were assembled in replicates of four and were used to calculate %-inhibition values in the presence of compounds. Percent inhibition (Pinh) was determined using the following equation: Pinh=(PSR0%−PSRinh)/(PSR0%−PSR100%)*100, where PSRinh is the product sum ratio in the presence of inhibitor, PSR0% is the product sum ratio in the absence of inhibitor and PSR100% is the product sum ratio in 100%-inhibition control samples. To determine IC50 values, the inhibition curves (Pinh versus inhibitor concentration) were fitted by 4 parameter sigmoid dose-response model using XLfit software (IDBS).

ITK = ITK (Homo sapiens (Human), UniProt Q08881); assay: ITK kinase inhibition assay; format: biochemical; conditions: micro-fluidic detection, 3 hours at 25° C.
Description: as §1, with “384 well” for “384well”, “(PSR):P/(S+P),” for “(PSR): P/(S+P),”

RLK/TXK, sequence (P42681 whole entry): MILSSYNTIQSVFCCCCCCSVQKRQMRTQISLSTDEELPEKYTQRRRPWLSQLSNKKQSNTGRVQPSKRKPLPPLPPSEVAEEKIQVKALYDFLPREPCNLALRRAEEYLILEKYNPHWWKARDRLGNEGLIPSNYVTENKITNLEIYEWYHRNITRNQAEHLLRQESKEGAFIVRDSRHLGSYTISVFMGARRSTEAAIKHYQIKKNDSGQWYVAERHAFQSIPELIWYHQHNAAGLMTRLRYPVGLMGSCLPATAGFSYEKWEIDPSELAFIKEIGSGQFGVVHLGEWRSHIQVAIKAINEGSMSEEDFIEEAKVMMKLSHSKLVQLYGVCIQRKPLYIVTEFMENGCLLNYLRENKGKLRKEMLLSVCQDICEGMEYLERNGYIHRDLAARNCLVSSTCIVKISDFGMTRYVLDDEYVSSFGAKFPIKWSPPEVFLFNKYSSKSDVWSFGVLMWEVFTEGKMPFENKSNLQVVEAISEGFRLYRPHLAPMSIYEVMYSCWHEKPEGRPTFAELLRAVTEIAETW
ITK, sequence (Q08881 whole entry): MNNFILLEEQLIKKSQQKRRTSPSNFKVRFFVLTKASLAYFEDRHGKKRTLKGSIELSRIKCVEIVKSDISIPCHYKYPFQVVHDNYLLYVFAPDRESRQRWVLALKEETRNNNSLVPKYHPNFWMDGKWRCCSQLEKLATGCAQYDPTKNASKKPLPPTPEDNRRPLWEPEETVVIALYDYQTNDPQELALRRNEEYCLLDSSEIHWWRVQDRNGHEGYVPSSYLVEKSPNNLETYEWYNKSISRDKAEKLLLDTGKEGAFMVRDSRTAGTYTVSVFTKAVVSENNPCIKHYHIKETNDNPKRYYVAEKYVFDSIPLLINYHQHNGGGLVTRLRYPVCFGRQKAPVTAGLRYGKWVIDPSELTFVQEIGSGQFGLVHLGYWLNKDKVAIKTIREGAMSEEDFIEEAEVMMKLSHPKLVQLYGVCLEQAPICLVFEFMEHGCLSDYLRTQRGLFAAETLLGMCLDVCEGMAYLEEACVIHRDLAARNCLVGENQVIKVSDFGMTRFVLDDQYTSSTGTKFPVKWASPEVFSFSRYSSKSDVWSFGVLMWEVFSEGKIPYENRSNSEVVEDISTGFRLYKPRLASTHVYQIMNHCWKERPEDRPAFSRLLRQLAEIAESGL

Structure (SMILES) | EC50 [1] [nM] | EC50 (RLK/TXK) [nM] | EC50 (ITK) [nM] | EC50 (Human PBMCs) [nM]
C=CC(=O)N[C@H]1CC[C@@H](n2c(NC(=O)c3ccc(C(F)F)s3)nc3cc(CN[C@@H](C)C(C)(C)C)ccc32)CC1 [Compound 3] | 10 to 100 | 10 to 100 | 10 to 100 | > 100
C=CC(=O)Nc1cccc(-n2c(NC(=O)c3ccc(C#N)cc3)nc3cc(CN[C@@H](C)C(C)(C)C)ccc32)c1 [Compound 11] | > 100 | < 10 | < 10 | 10 to 100
C=CC(=O)Nc1cccc(-n2c(NC(=O)c3nccs3)nc3cc(CN[C@@H](C)C(C)(C)C)ccc32)c1 [Compound 12] | > 100 | 10 to 100 | > 100 | > 100
C=CC(=O)Nc1cccc(-n2c(NC(=O)c3ccncc3)nc3cc(CN[C@@H](C)C(C)(C)C)ccc32)c1 [Compound 16] | 10 to 100 | < 10 | < 10 | 10 to 100
C=CC(=O)Nc1cccc(-n2c(NC(=O)c3cncs3)nc3cc(CN[C@@H](C)C(C)(C)C)ccc32)c1 [Compound 17] | 10 to 100 | < 10 | 10 to 100 | 10 to 100
C=CC(=O)Nc1cccc(-n2c(NC(=O)c3ccccn3)nc3cc(CN[C@@H](C)C(C)(C)C)ccc32)c1 [Compound 27] | > 100 | > 100 | > 100 | > 100
C=CC(=O)N[C@H]1CC[C@@H](n2c(NC(=O)c3ccc(C#N)cc3)nc3cc(CN[C@@H](C)C(C)(C)C)ccc32)CC1 [Compound 54] | > 100 | – | – | > 100
C=CC(=O)N1CCOc2ccc(-n3c(NC(=O)c4ccc(C(F)F)s4)nc4cc(CN[C@@H](C)C(C)(C)C)ccc43)cc21 [Compound 57] | 10 to 100 | – | – | 10 to 100
C=CC(=O)N[C@H]1CC[C@@H](n2c(NC(=O)c3ccns3)nc3cc(CN[C@@H](C)C(C)(C)C)ccc32)CC1 [Compound 67] | 10 to 100 | – | – | > 100
C=CC(=O)N[C@H]1CCC[C@@H](n2c(NC(=O)c3ccc(C(F)F)s3)nc3cc(CN[C@@H](C)C(C)(C)C)ccc32)C1 [Compound 68] | – | < 10 | < 10 | < 10
CC#CC(=O)Nc1cccc(-n2c(NC(=O)c3ccc(C(F)F)s3)nc3cc(CN[C@@H](C)C(C)(C)C)ccc32)c1 [Compound 72] | 10 to 100 | – | – | > 100
C[C@H](NCc1ccc2c(c1)nc(NC(=O)c1ccc(C(F)F)s1)n2-c1cccc(NC(=O)/C=C/CN(C)C)c1)C(C)(C)C [Compound 78] | 10 to 100 | – | – | > 100
C=CC(=O)Nc1cccc(-n2c(NC(=O)c3ccc(C(F)F)s3)nc3cc(N(C)S(C)(=O)=O)ccc32)c1 [Compound 80] | 10 to 100 | – | – | 10 to 100
C=C(F)C(=O)Nc1cccc(-n2c(NC(=O)c3ccc(C(F)F)s3)nc3cc(CN[C@@H](C)C(C)(C)C)ccc32)c1 [Compound 84] | 10 to 100 | – | – | 10 to 100

Second part, led by results:

EC50 [1] [nM] | EC50 (RLK/TXK) [nM] | EC50 (ITK) [nM] | Structure (SMILES) | EC50 (Human PBMCs) [nM]
10 to 100 | 10 to 100 | < 10 | C=CC(=O)N[C@H]1C[C@@H](n2c(NC(=O)c3ccc(C(F)F)s3)nc3cc(CN[C@@H](C)C(C)(C)C)ccc32)C1 [Compound 1] | 10 to 100
< 10 | < 10 | < 10 | C=CC(=O)N[C@@H]1CC[C@H](n2c(NC(=O)c3ccc(C(F)F)s3)nc3cc(CN[C@@H](C)C(C)(C)C)ccc32)C1 [Compound 18] | 10 to 100
< 10 | 10 to 100 | < 10 | C=CC(=O)Nc1cccc(-n2c(NC(=O)c3cccnc3)nc3cc(CN[C@@H](C)C(C)(C)C)ccc32)c1 [Compound 19] | 10 to 100
< 10 | < 10 | < 10 | C=CC(=O)Nc1cccc(-n2c(NC(=O)c3ccc(C(F)F)s3)nc3cc(CN[C@H]4CC[C@H](O)CC4)ccc32)c1 [Compound 31] | < 10
< 10 | – | – | C=CC(=O)Nc1cccc(-n2c(NC(=O)c3cncnc3)nc3cc(CN[C@@H](C)C(C)(C)C)ccc32)c1 [Compound 41] | 10 to 100
< 10 | 10 to 100 | 10 to 100 | C=CC(=O)Nc1cccc(-n2c(NC(=O)c3cnco3)nc3cc(CN[C@@H](C)C(C)(C)C)ccc32)c1 [Compound 42] | 10 to 100
< 10 | < 10 | < 10 | C=CC(=O)Nc1cccc(-n2c(NC(=O)c3ccns3)nc3cc(CN[C@@H](C)C(C)(C)C)ccc32)c1 [Compound 43] | < 10
< 10 | – | – | C=CC(=O)Nc1cccc(-n2c(NC(=O)c3ccc(C(F)F)s3)nc3cc(CN4CCN(CCO)CC4)ccc32)c1 [Compound 59] | < 10
< 10 | – | – | C=CC(=O)Nc1cccc(-n2c(NC(=O)c3ccns3)nc3cc(CN4CCOCC4)ccc32)c1 [Compound 73] | 10 to 100
< 10 | – | – | C=CC(=O)Nc1cccc(-n2c(NC(=O)c3ccno3)nc3cc(CN4CCOCC4)ccc32)c1 [Compound 76] | 10 to 100
